Test results published in EP0366451A2, “The use of oxidized polyamines, especially NN'-Bis-(3-propionaldehyde)-1-4-diaminobutane (sperminedialdehyde) as immunosuppressive agents” (ORTHO PHARMACEUTICAL CORPORATION, priority 1988, dated 1990).
Entries after “also recorded” stand apart in the source; their conditions may differ.

Experiments:
Ornithine decarboxylase = Ornithine decarboxylase (Mus musculus, UniProt P00860); experiment: Ornithine decarboxylase inhibition; assay type: biochemical; details: Figure 10
Ornithine decarboxylase, sequence (P00860 whole entry): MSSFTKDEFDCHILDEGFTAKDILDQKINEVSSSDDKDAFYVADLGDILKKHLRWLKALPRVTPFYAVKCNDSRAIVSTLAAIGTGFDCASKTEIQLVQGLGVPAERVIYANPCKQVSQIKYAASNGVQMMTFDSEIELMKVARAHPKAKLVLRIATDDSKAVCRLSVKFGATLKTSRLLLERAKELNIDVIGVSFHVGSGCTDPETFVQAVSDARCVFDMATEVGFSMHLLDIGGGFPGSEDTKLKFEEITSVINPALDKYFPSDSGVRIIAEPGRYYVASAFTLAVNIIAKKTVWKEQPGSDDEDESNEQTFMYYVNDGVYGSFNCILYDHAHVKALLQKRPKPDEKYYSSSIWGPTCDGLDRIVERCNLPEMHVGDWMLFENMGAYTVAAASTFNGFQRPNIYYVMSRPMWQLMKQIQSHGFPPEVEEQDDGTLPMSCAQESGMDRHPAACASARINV
Source text: The figure illustrates the comparative profile of the inhibition of key regulatory enzymes of polyamine synthesis by SDA, its analogue, butyl dialdehyde (BDA), difluoromethyl orinithine (DFMO) and methyl glyoxal bis (guanylhydrazone) (MGBG).

[1] = target: T1, S-Adenosylmethionine Decarboxylase (AdoMet DC) (Mus musculus, UniProt P0DMN7); experiment: AdoMet DC inhibition in L1210 cell supernatants ([14C]CO2 release); assay type: biochemical, Murine; details: for inhibition of AdoMet DC (in words): Fig. 9 and Figure 10
T1 construct: endogenous in cells; host or cells: murine leukemic L1210 cells (supernatant)
T1 sequence (P0DMN7 68-334 limits assumed): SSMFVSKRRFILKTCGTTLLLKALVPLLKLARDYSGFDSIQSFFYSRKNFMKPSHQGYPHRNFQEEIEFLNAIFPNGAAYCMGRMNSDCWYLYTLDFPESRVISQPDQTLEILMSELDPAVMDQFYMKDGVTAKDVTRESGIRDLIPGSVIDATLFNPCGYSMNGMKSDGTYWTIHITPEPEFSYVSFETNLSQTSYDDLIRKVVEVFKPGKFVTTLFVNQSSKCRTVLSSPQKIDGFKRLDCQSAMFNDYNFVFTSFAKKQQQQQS
T1 sequence (P0DMN7 1-67 limits assumed): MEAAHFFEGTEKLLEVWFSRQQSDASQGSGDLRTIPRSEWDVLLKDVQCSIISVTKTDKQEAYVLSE
Description: Murine leukemic L1210 cell supernatants were incubated with different concentrations of SDA or butyl dialdehyde, and AdoMet DC activity was estimated by monitoring the release of [¹⁴C] CO₂. Inhibition curves for both drugs were superimposable with IC₅₀ values of 0.12-0.13 x 10⁻³ M.

[2] = Preliminary in vitro alkylation studies
cytosolic ALDH = experiment: NAD-linked cytosolic ALDH assay, L1210/CPA cells; assay type: biochemical, Murine
Description: (§1) Cultured murine leukemic cells and livers (excised from mice immediately after cervical dislocation) were homogenized in 3 volumes of ice-cold 1.15% KCl and 1 mM EDTA. The homogenate was centrifuged at 100,000 g for 45 min and the resulting supernatant was used to measure cytosolic ALDH activity. For particulate ALDH assay, the pellet (and homogenate for total ALDH) was resuspended in homogenizing buffer and treated with 0.25% Triton X-100 for 30 min at 4°C. The solubilized preparations were centrifuged at 48,000 g for 30 min and the supernatants were drawn off for ALDH determinations.
(§2) ALDH activity was measured by monitoring the reduction of NAD or NADp for 5-6 min at […] at 37°C in DU70 spectrophotometer (Beckman). The assay mixture contained 50 mM potassium phosphate buffer, pH 7.4, 2.0 mM NAD (or NADP) and 1.0 mM EDTA. The reaction was started by adding the substrate (SDA or other aldehyde) to the prewarmed (5 min at 37°C) assay mixture containing enzyme preparation. Pyrazole (0.1 mM) was added particularly for liver enzyme, to inhibit alcohol dehydrogenase. The apparent Km and maximum velocity (Vmax) values were calculated using a Lineweaver-Burk plot based on the estimation of the slope by regression analysis. Enzyme activity was expressed as mU (nmoles/min) per mg of protein. Protein contents were determined by the Bradford method, using bovine serum albumin as the standard.

[3] = test system: Cytosolic ALDH in mouse liver; experiment: NAD-linked cytosolic ALDH assay, mouse liver; assay type: biochemical; details: as substrate, mouse liver cytosol
Description: as §1, §2

[4] = test system: tumor cells and hemopoietic progenitor cells; experiment: Cytotoxicity of ALDH inhibitors ex vivo; assay type: cell-based; details: at concentrations much lower than needed for complete inhibition of ALDH
Source text: Both disulfiram and acrolein were very toxic to tumor cells and hemopoietic progenitor cells ex vivo at concentrations much lower than that needed for complete inhibition of ALDH. […] Therefore, in subsequent experiments, DEAB was chosen to study the survival of leukemic cells and myeloid progenitor cells after treatment with SDA.

[5] = test system: NADP-linked cytosolic ALDH; experiment: NADP-linked cytosolic ALDH assay, L1210/CPA cells; assay type: biochemical, Murine; details: SDA as substrate; read-out: 50% inhibition at
Description: as §1
as §2, with “standard. […]” for “standard.”

splenic T cell = experiment: Concanavalin A-stimulated splenic T cell proliferation ([3H]-thymidine incorporation); assay type: cell-based, Mouse
Description: Splenic cells were treated with various concentrations of SDA or an analogue for 30 min. at 37°C. Cells were washed and cultured in the presence of Concanavalin A for 3 days. [³H] Thymidine 0.1µCi/well was added and cells were harvested after 18-24 hrs.
Mouse spleen cells were cultured for 3 days in flat bottom microtiter relates at 10⁵ cells per well in the presence of […] of Con A. 3H-thymidine (0.1 microcurie/well) was added for the last 4-6 hours of the culture period. Cells were harvested as described above.
For [³H]-thymidine incorporation, drug or vehicle treated bone marrow or spleen cells were plated in RPMI-1640, containing 10% fetal bovine serum, 10 µM β-mercaptoethanol, 25 mM HEPES and 2 mM glutamine. Con-A (4 µg/ml and […]) was used as mitogens for bone marrow and spleen cells. Three days later, [³H]-thymidine (0.2 µCi/well) was added and cells were harvested after 12-18 hrs. L1210/CPA and L1210/0 cells (0.1 - 1 x 10⁵ cells/well were plated in RPMI-1640 containing 10% horse serum. [³H]-thymidine was added after 24 hrs and cells were filtered on GF/B filter paper for scintillation counting.

NCCCC(N)(C(=O)O)C(F)F (stereo not drawn) [DFMO, difluoromethyl orinithine, reference compound]
inhibition of ODC (in words) (Ornithine decarboxylase): inhibited ODC with high potency | inhibition of AdoMet DC (in words) [1]: compensatory increase in AdoMetDC

CC(=O)CCNCCCCNCCC(C)=O [ANALOGUE # 3]
alkylation [2]: nonspecific alkylating agents

c1cn[nH]c1 [Pyrazole]
effect on L1210/CPA cytosolic enzyme (cytosolic ALDH; SDA as the substrate, data not shown): had no effect

CCC=O [Propionaldehyde]
Km ([3]; NAD, ± SEM, 3-4 experiments): 14 ± 2.8 µM | Specific (activity of ALDH) ([3]; propionaldehyde 1.0 mM): 22.5 ± 3.9 mU/mg Protein | Km (cytosolic ALDH; as substrate, L1210/CPA cytosol, NAD, ± SEM, 3-4 experiments): 26.5 ± 4.9 µM | Specific (activity of ALDH) (cytosolic ALDH; as substrate, L1210/CPA cytosol, propionaldehyde 1.0 mM): 10.5 ± 3.2 mU/mg Protein

Nc1ncnc2c1nc(Sc1cc3c(cc1Br)OCO3)n2CCc1ccccc1Cl [ANALOGUE # 4]
alkylation [2]: nonspecific alkylating agents

C=CC=O [Acrolein]
toxicity to tumor cells and hemopoietic progenitor cells ex vivo [4]: very toxic | IC50 (cytosolic ALDH; SDA (1.0 mM) as substrate, pretreated with inhibitor 5 min at 37°C, read-out: Inhibition (IC₅₀)): 2.5 ± 0.63 µM | IC50 [5]: 50 to 100 µM

CC(C=NNC(=N)N)=NNC(=N)N [MGBG, methyl glyoxal bis (guanylhydrazone), reference compound]
inhibition of AdoMet DC (in words) [1]: inhibited AdoMetDC; also recorded: selectively reduced AdoMet IC activity

CCN(CC)C(=S)SSC(=S)N(CC)CC [Disulfiram]
toxicity to tumor cells and hemopoietic progenitor cells ex vivo [4]: very toxic

O=CCCCNCCCCNCCCC=O [ANALOGUE # 7, butyl dialdehyde]
potency in proliferation assays compared with SDA (splenic T cell; Fig. 8): less potent than SDA | fold less potent than SDA (splenic T cell; Figure 8): 30 fold | inhibition of AdoMet DC (in words) [1]: selectively inhibited adenosylmethionine decarboxylase | IC50 ([1]; Figure 9, inhibition curves superimposable, read-out: IC₅₀ values): 120 to 130 µM
